One test relates to Macrophomina phaseolina. Description: Antifungal activity against Macrophomina phaseolina by poison food technique. It counts as functional.
A further test concerns Fusarium oxysporum. Description: Antifungal activity against Fusarium oxysporum by poison food technique. It counts as functional.
The subject of the next test is Proteus vulgaris. Description: Antibacterial activity against Proteus vulgaris by well diffusion method. The format is functional.
Another test deals with Salmonella typhi. Description: Antibacterial activity against Salmonella typhi by well diffusion method. The settings on record: Salmonella enterica. It counts as functional, Salmonella enterica subsp. enterica serovar Typhi. In general terms: Agar diffusion results depend on both activity and mobility in agar.
In a further test the test system is Staphylococcus aureus. Description: Antibacterial activity against Staphylococcus aureus by well diffusion method. The format is functional.
The next test relates to Proteus mirabilis. Put plainly: Antibacterial activity against Proteus mirabilis by well diffusion method. It counts as functional.

The structures appear in SMILES notation. Values after ≈ are worked out from the molar mass of the structure shown.

Broadly, the MIC is the lowest concentration found to suppress growth. Read a low MIC as greater potency. As for `COC(=O)Nc1nc2ccccc2[nH]1` [CARBENDAZIM], the MIC against Macrophomina phaseolina stood at 15 µg/mL (≈ 78.5 µM); against Fusarium oxysporum, 18 µg/mL (≈ 94.1 µM).
With `O=C1C2Nc3ccccc3C2CC[C@@]12[C@@H](c1ccc([N+](=O)[O-])cc1)C1CCCN1[C@@]21C(=O)Nc2ccccc21` (some centres not stated), the MIC in the test on Proteus vulgaris stood at 35 µg/mL (≈ 67.2 µM); against Macrophomina phaseolina, 100 µg/mL (≈ 192 µM); in the test with Salmonella typhi, 40 µg/mL (≈ 76.8 µM); against Staphylococcus aureus, 25 µg/mL (≈ 48 µM); with Proteus mirabilis it was 55 µg/mL (≈ 106 µM); with Fusarium oxysporum, 75 µg/mL (≈ 144 µM).
With `O=C1C2Nc3ccccc3C2CC[C@@]12[C@@H](c1ccccc1)C1CCCN1[C@@]21C(=O)Nc2ccccc21` (some centres not stated), the MIC with Proteus vulgaris amounted to 30 µg/mL (≈ 63.1 µM); in the test with Macrophomina phaseolina, 50 µg/mL (≈ 105 µM); in the test on Salmonella typhi, 20 µg/mL (≈ 42.1 µM); with Proteus mirabilis, 55 µg/mL (≈ 116 µM); in the test on Fusarium oxysporum it was 125 µg/mL (≈ 263 µM).
As to `Cc1ccc([C@H]2C3CCCN3[C@@]3(C(=O)Nc4ccccc43)[C@]23CCC2c4ccccc4NC2C3=O)cc1` (some centres not stated), the MIC in the test with Proteus vulgaris was 40 µg/mL (≈ 81.7 µM); against Macrophomina phaseolina, 50 µg/mL (≈ 102 µM); in the test with Salmonella typhi, 35 µg/mL (≈ 71.5 µM); against Staphylococcus aureus, 45 µg/mL (≈ 91.9 µM); against Proteus mirabilis, 65 µg/mL (≈ 133 µM); against Fusarium oxysporum it was 75 µg/mL (≈ 153 µM).
With `O=C1C2Nc3ccccc3C2CC[C@@]12[C@@H](c1ccc(Cl)cc1)C1CCCN1[C@@]21C(=O)Nc2ccccc21` (some centres not stated), the MIC against Proteus vulgaris was 10 µg/mL (≈ 19.6 µM); in the test with Macrophomina phaseolina, 75 µg/mL (≈ 147 µM); in the test on Salmonella typhi, 30 µg/mL (≈ 58.8 µM); in the test with Staphylococcus aureus, 20 µg/mL (≈ 39.2 µM); against Proteus mirabilis it was 35 µg/mL (≈ 68.6 µM); against Fusarium oxysporum, 125 µg/mL (≈ 245 µM).
For the compound `CN(C)[C@@H]1C(O)=C(C(N)=O)C(=O)[C@@]2(O)C(O)=C3C(=O)c4c(O)cccc4[C@@](C)(O)[C@H]3C[C@@H]12` [TETRACYCLINE], the MIC came to 15 µg/mL (≈ 33.8 µM) against Proteus vulgaris, 15 µg/mL (≈ 33.8 µM) against Salmonella typhi, 10 µg/mL (≈ 22.5 µM) with Staphylococcus aureus and 20 µg/mL (≈ 45 µM) against Proteus mirabilis.
For `O=C1C2Nc3ccccc3C2CC[C@@]12[C@@H](c1ccc(Br)cc1)C1CCCN1[C@@]21C(=O)Nc2ccccc21` (some centres not stated), the MIC in the test on Proteus vulgaris was 25 µg/mL (≈ 45.1 µM); in the test on Macrophomina phaseolina, 25 µg/mL (≈ 45.1 µM); in the test with Salmonella typhi it was 30 µg/mL (≈ 54.1 µM); with Staphylococcus aureus, 45 µg/mL (≈ 81.2 µM); against Proteus mirabilis, 30 µg/mL (≈ 54.1 µM); in the test with Fusarium oxysporum, 50 µg/mL (≈ 90.2 µM).
Take `CN(C)c1ccc([C@H]2C3CCCN3[C@@]3(C(=O)Nc4ccccc43)[C@]23CCC2c4ccccc4NC2C3=O)cc1` (some centres not stated): the MIC amounted to 45 µg/mL (≈ 86.8 µM) in the test with Proteus vulgaris; 75 µg/mL (≈ 145 µM) in the test on Macrophomina phaseolina; 35 µg/mL (≈ 67.5 µM) in the test with Salmonella typhi; 35 µg/mL (≈ 67.5 µM) in the test with Staphylococcus aureus; 50 µg/mL (≈ 96.4 µM) with Proteus mirabilis; 150 µg/mL (≈ 289 µM) against Fusarium oxysporum.
Take `COc1ccc([C@H]2C3CCCN3[C@@]3(C(=O)Nc4ccccc43)[C@]23CCC2c4ccccc4NC2C3=O)cc1` (some centres not stated): the MIC against Proteus vulgaris turned out to be 15 µg/mL (≈ 29.7 µM); against Macrophomina phaseolina, 25 µg/mL (≈ 49.4 µM); in the test on Salmonella typhi it was 45 µg/mL (≈ 89 µM); in the test on Staphylococcus aureus, 40 µg/mL (≈ 79.1 µM); in the test with Proteus mirabilis, 25 µg/mL (≈ 49.4 µM); against Fusarium oxysporum, 75 µg/mL (≈ 148 µM).

The values are drawn from ChEMBL document CHEMBL1143903, “Synthesis of novel spiropyrrolizidines as potent antimicrobial agents for human and plant pathogens” (2008).
